Laboratory results from US20220184222A1, “BICYCLE TOXIN CONJUGATES AND USES THEREOF” (BicycleTx Limited, priority 2019, published 2022).
Starred links: 1 amine or outer side, 2 acyl side, 3 side chain; linkers in the order of their positions; H or OH if unused. Non-standard residues stand in square brackets, D forms with d. Residues, ends and D or L forms follow the SMILES beside them. *: point of attachment. Dolaproine = CO[C@@H]([C@@H]1CCCN1)[C@@H](C)C(=O)O; Dil = CC[C@H](C)[C@H](NC)[C@@H](CC(=O)O)OC; PABC = O=C(OCc1ccc(N[*:1])cc1)[*:2]; X1 = O=C(CCCC(=O)*)ON1C(=O)CCC1=O; X2 = C[C@@H](N*)[C@@H](O)c1ccccc1; Cit = NC(=O)NCCC[C@H](N)C(=O)O; NMeV = CN[C@H](C(=O)O)C(C)C

Tests used:
CTG-0160 = experiment: Champions TumorGraft NSCLC PDX efficacy, model CTG-0160; format: in vivo, Mus musculus
Method: (§1) Mice were implanted subcutaneously into the left flank with tumor fragments from one of the various models. After tumors grew to an average of 150-300 mm^3, mice were treated by IV administration Q7Dx4 (n=2) with vehicle or 3 mg/kg of BT5528. Effects on tumor growth were evaluated by measuring percent tumor growth inhibition (% TGI), and the number of complete responders (CR), partial responders (PR), and tumor-free survivors (TFS). Tolerability was assessed by body weight loss, lethality, and clinical signs of adverse treatment-related side effects. Tumor volumes and body weights were measured twice a week.
(§2) Dosing solutions of BT5528 […] were pre-formulated. These dosing solutions were stored at −80° C. in the dark. On each day of dosing, a frozen aliquot of each test agent was thawed, stored at 2-8° C. and used for dosing.
(§3) The animals used in this study are described below: • Species: Mus musculus • Strain: Athymic Nude-Foxn1^nu (immune-compromised) • Source: Envigo (Indianapolis, Ind., USA) • Number of animals per group: 2 • Age and sex: At least 6-8 weeks of age at start of dosing, female • Weight: At least 18 grams at start of dosing • Acclimation period: 3 days
(§4) Stock mice were implanted with tumor cells from Champions TumorGraft® models CTG-0160, CTG-0170, CTG-0178, CTG-0192, CTG-0363, CTG-0808, CTG-0838, CTG-0848, CTG-1212, CTG-1502, CTG-1535, CTG-2011, CTG-2393, CTG-2539 or CTG-2540. After the tumors reached 1000-1500 mm^3, they were harvested and the tumor fragments (approximately 5×5×5 mm^3) were implanted SC in the left flank of the female study mice. Each animal was implanted with a specific passage lot and documented. Tumor growth was monitored twice a week using digital calipers and the tumor volume (TV) was calculated using the formula (0.52×[length×width^2]). When the TV reached an average volume of 150-300 mm^3, animals were matched by tumor size and assigned into Vehicle Control and treatment groups (n=2/group) and dosing was initiated on Day 0. After the initiation of dosing on Day 0, animals were weighed twice per week using a digital scale and TV was measured twice per week and also on the final day of study. The study was completed when the mean tumor volume of Vehicle Control reached 1500 mm^3 or up to Day 60, whichever occurred first.
(§5) Beginning on Day 0, animals were observed daily and weighed twice weekly using a digital scale; data including individual and mean gram weights, mean percent weight change versus Day 0 (% vD0) were recorded for each group and % vD0 plotted at study completion. […] Treatment resulting in a mean % vD0>20% and/or >10% mortality was considered above the maximum tolerated dose. Maximum mean % vD0 (weight nadir) for each treatment group was reported at study completion.
(§6) Inhibition of tumor growth was determined by calculating the percent TGI (100%×[1−(final MTV−initial MTV of a treated group)/(final MTV−initial MTV of the control group)]). Treatment started on Day 0.
(§7) Additional endpoints used to evaluate efficacy were: the number of complete responders (CR), partial responders (PR), and tumor-free survivors (TFS). PRs were considered exclusive of CRs, as were TFS.
(§8) Statistical analyses of anti-tumor efficacy were performed using one-way ANOVA followed by Dunnett's multiple comparisons test (GraphPad Prism version 8.2.0). Significant p-values=<0.05.
Animals were dosed according to the schedule on Table 7-1. The Vehicle Control group reached endpoint of average tumor volume >1500 mm^3 on Day 21 and was removed from the study. The study was terminated on Day 28. Therefore, the tumor volumes on Day 21 were used for analysis of anti-tumor activity.

CTG-0808 = experiment: Champions TumorGraft NSCLC PDX efficacy, model CTG-0808; format: in vivo, Mus musculus
Method: as §1, §2, §3, §4, §5, §6, §7, §8
Animals were dosed according to the schedule on Table 7-1. The Vehicle Control reached endpoint on Day 14 and the study was terminated on Day 28.

[1] = CTG-0160, 3 mg/kg IV Q7Dx4, Day 0-28
[2] = CTG-0808, 3 mg/kg IV Q7Dx4, Day 0-28

CC[C@H](C)[C@@H]([C@@H](CC(=O)N1CCC[C@H]1[C@H](OC)[C@@H](C)C(=O)N[C@H](C)[C@@H](O)c1ccccc1)OC)N(C)C(=O)[C@@H](NC(=O)[C@H](C(C)C)N(C)C(=O)OCc1ccc(NC(=O)[C@H](CCCNC(N)=O)NC(=O)[C@@H](NC(=O)CCCC(=O)ON2C(=O)CCC2=O)C(C)C)cc1)C(C)C [BT5528] (X1-V[Cit][PABC][NMeV]V[Dil][Dolaproine]-X2)
MTV (mean tumor volume) (CTG-0160; 3 mg/kg IV Q7Dx4, Day 21): 400±187 mm^3 | TGI (CTG-0160; 3 mg/kg IV Q7Dx4, Day 21): 87% | # CR (complete responders) (CTG-0160; [1]): 0/0/0 | # PR (partial responders) (CTG-0160; [1]): 0/0/0 | # TFS (tumor-free survivors) (CTG-0160; [1]): 0/0/0 | % TGI (CTG-0160; CTG-0160, 3 mg/kg IV Q7Dx4, Day 21): 87% | Day 21 Tumor Volume Mean TV ± SEM (CTG-0160; CTG-0160, BT5528 3 mg/kg IV Q7Dx4, Day 21, n=2): 400 ± 187 mm^3 | MTV (mean tumor volume) (CTG-0808; 3 mg/kg IV Q7Dx4, Day 14): 541±4 mm^3 | TGI (CTG-0808; 3 mg/kg IV Q7Dx4, Day 14): 76% | # CR (complete responders) (CTG-0808; [2]): 0/0/0 | # PR (partial responders) (CTG-0808; [2]): 0/0/0 | # TFS (tumor-free survivors) (CTG-0808; [2]): 0/0/0 | % TGI (CTG-0808; CTG-0808, 3 mg/kg IV Q7Dx4, Day 14): 76% | Day 14 Tumor Volume Mean TV ± SEM (CTG-0808; CTG-0808, BT5528 3 mg/kg IV Q7Dx4, Day 14, n=2): 541 ± 4 mm^3
